Data reported in PubChem BioAssay (NCI).
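Cultured in 96-well plates, cells were exposed to test compound for 48 hours across five concentrations. TGI: total growth inhibition.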

What was measured:
Assay in all cases: NCI anticancer screen, dose series, 48 h
[1] = tested on: MDA-MB-231 breast
[2] = tested on: ACHN renal
[3] = tested on: NCI-H460 lung
[4] = tested on: TK-10 renal
[5] = tested on: SF-268 CNS
[6] = tested on: HS 578T breast
[7] = tested on: SN12C renal
[8] = tested on: SNB-75 CNS
[9] = tested on: K-562 leukemia
[10] = tested on: NCI-H226 lung
[11] = tested on: IGROV1 ovarian
[12] = tested on: HCT-15 colon
[13] = tested on: T-47D breast
[14] = tested on: BT-549 breast
[15] = tested on: SR leukemia
[16] = tested on: MDA-N
[17] = tested on: CAKI-1 renal
[18] = tested on: COLO 205 colon
[19] = tested on: NCI/ADR-RES ovarian

| Compound | TGI [1] [µM] | TGI [2] [µM] | TGI [3] [µM] | TGI [4] [µM] | TGI [5] [µM] | TGI [6] [µM] | TGI [7] [µM] | TGI [8] [µM] | TGI [9] [µM] | TGI [10] [µM] | TGI [11] [µM] | TGI [12] [µM] | TGI [13] [µM] | TGI [14] [µM] | TGI [15] [µM] | TGI [16] [µM] | TGI [17] [µM] | TGI [18] [µM] | TGI [19] [µM] |
| --- | --- | --- | --- | --- | --- | --- | --- | --- | --- | --- | --- | --- | --- | --- | --- | --- | --- | --- | --- |
| CC1CCC2C(C(=O)O[C@H]3C4CCO[C@@H](OC5OC(CO)C(O)C(O)C5O)C4[C@@]4(CO)O[C@@H]34)=CO[C@@H](OC3OC(CO)C(O)C(O)C3O)C12 (stereo not given in full) | > 10 | > 10 | > 10 | > 10 | > 10 | > 10 | > 10 | > 10 | > 10 | > 10 | > 10 | > 10 | > 10 | > 10 | > 10 | > 10 | – | – | – |
| CCOP(=O)(OCC)/C(C#N)=C/c1cccn1CC(C)C | > 100 | > 100 | > 100 | > 100 | > 100 | – | > 100 | > 100 | > 100 | > 100 | > 100 | > 100 | > 100 | > 100 | > 100 | > 100 | > 100 | > 100 | > 100 |
| FC(F)(Sc1ccccc1)c1nc2ccccc2o1 | > 100 | > 100 | > 100 | > 100 | > 100 | – | > 100 | – | > 100 | > 100 | > 100 | > 100 | > 100 | > 100 | 73.7 | > 100 | > 100 | > 100 | > 100 |
| CCOC(=O)c1[nH]c2ccccc2c1C(=O)C[C@H](NC(=O)C(F)(F)F)C(=O)OC | > 100 | > 100 | > 100 | > 100 | > 100 | > 100 | > 100 | > 100 | > 100 | > 100 | > 100 | > 100 | – | > 100 | > 100 | > 100 | > 100 | > 100 | > 100 |
| O=C(O)c1ccc(C(c2c(O)c3ccccc3oc2=O)c2c(O)c3ccccc3oc2=O)cc1 | > 100 | > 100 | > 100 | – | > 100 | 62.7 | > 100 | – | > 100 | – | – | > 100 | > 100 | > 100 | > 100 | > 100 | > 100 | > 100 | > 100 |
| CN(C)c1ccc(/C=C(\NC(=O)c2ccccc2)C(=O)NC(CCC(=O)O)C(=O)O)cc1 (stereo not given) | > 100 | > 100 | > 100 | > 100 | > 100 | > 100 | > 100 | > 100 | > 100 | > 100 | > 100 | > 100 | > 100 | > 100 | – | > 100 | > 100 | > 100 | > 100 |
| CC(=O)N[C@H]1CCCC[C@@H]1OC(C)=O | > 100 | > 100 | > 100 | > 100 | – | > 100 | > 100 | > 100 | > 100 | > 100 | > 100 | > 100 | > 100 | > 100 | – | > 100 | > 100 | > 100 | > 100 |
| c1ccc(/N=N/Nc2ccc(-c3nc4ccccc4[nH]3)cc2)nc1 | 25.1 | 34.2 | 31.6 | 35.6 | – | 43 | 35.8 | 40.5 | 31.8 | 65.4 | 28 | 69.9 | 26 | > 100 | – | 34.7 | 61.3 | > 100 | > 100 |
| COc1cccc(N2C(=O)CSC2c2cc(OC)c(OC)c(OC)c2)c1 (stereo not given) | > 100 | > 100 | > 100 | > 100 | > 100 | > 100 | > 100 | – | > 100 | 87.2 | > 100 | > 100 | – | 64.6 | > 100 | 37.1 | > 100 | 76.8 | 91.4 |
| COc1cc([C@@H]2c3[nH]c4ccccc4c3C(Nc3ccc([N+](=O)[O-])cc3)[C@H]3COC(=O)N23)cc(OC)c1O (stereo not given in full) | 0.648 | 0.659 | 1.44 | 0.754 | 5.35 | 2.79 | 3.76 | 1.66 | 6.97 | 0.532 | 2.86 | 29.2 | > 23.2 | 4.87 | – | 2.81 | 2.11 | 2.86 | > 100 |
| c1cncc(-c2ncc3cccnc3n2)c1 | > 100 | > 100 | > 100 | > 100 | – | > 100 | > 100 | > 100 | > 100 | > 100 | > 100 | > 100 | – | > 100 | – | > 100 | > 100 | > 100 | > 100 |
| CCOC(=O)[C@@]12CCC(C1=O)[C@](C)(O)C[C@@H]2c1ccccc1 | > 100 | > 100 | > 100 | > 100 | > 100 | 61.7 | 72.3 | > 100 | > 100 | > 100 | > 100 | > 100 | > 100 | > 100 | – | 16.8 | > 100 | > 100 | > 100 |
| N#CCCN(CCC#N)c1ccc(/C=C2\N=C(c3ccccc3)N(c3ccccn3)C2=O)cc1 | > 100 | > 100 | > 100 | > 100 | > 100 | > 100 | > 100 | – | > 100 | > 100 | > 100 | > 100 | > 100 | > 100 | – | > 100 | > 100 | > 100 | > 100 |
| COc1cccc(/C=C2\CCCCCC2=O)c1 | > 100 | > 100 | > 100 | > 100 | > 100 | > 100 | > 100 | > 100 | > 100 | > 100 | > 100 | > 100 | > 100 | > 100 | > 100 | > 100 | > 100 | > 100 | – |
| CN(CCCCN(C)CCc1ccc(Cl)c(Cl)c1)CCCCN1CCCC1 | 2.25 | 3.64 | 2.98 | 2.99 | 3.12 | 3.23 | 4.01 | 3.72 | – | 4.01 | 5.57 | 3.73 | 3.94 | 4.6 | – | 2.64 | 3.13 | 3.8 | 13.4 |
| S=C(S)N1CCN(c2ccc(Cl)c(Cl)c2)CC1 | 40.7 | > 100 | – | > 100 | > 100 | 97.2 | > 100 | > 100 | 55.8 | – | 84.6 | > 100 | 42.6 | > 100 | – | 35 | 59.8 | 33.6 | > 100 |
| O=C(O)CC/C(=N\Nc1nsc2ccccc12)c1ccc(Cl)cc1 | 93.2 | > 80.6 | > 81.5 | > 67.6 | > 89.3 | > 100 | 57.7 | 73.1 | > 100 | > 100 | > 100 | 53.5 | > 100 | 74.3 | – | > 100 | 52.2 | > 100 | – |
| O=C(NC1=NC2C=CC([N+](=O)[O-])=CC2S1)C(=O)Nn1c(=S)[nH]c2ccccc2c1=O (stereo not given) | > 100 | 85.3 | > 100 | > 100 | > 100 | > 100 | > 100 | > 100 | > 100 | > 100 | > 100 | > 100 | > 100 | > 100 | – | > 100 | > 100 | – | > 100 |
| O=C1CC2(CCNCC2)C(=O)N1N1CCCC1 | > 100 | > 100 | – | > 100 | – | – | > 100 | – | > 100 | > 100 | > 100 | > 100 | > 100 | > 100 | > 100 | > 100 | > 100 | > 100 | > 100 |
| ClC1=C(Cc2ccccc2)Cc2ccc3c(c21)CCC3 | 57.3 | > 100 | – | > 100 | > 100 | 84.3 | > 100 | – | 76 | 74.1 | > 100 | > 100 | 50.4 | 67.5 | 36.9 | > 100 | 69.7 | 26.2 | – |
| O=c1[nH]nc(Cc2ccc(Cl)cc2)n1/N=C\c1ccc(/C=N/n2c(Cc3ccc(Cl)cc3)n[nH]c2=O)cc1 | 70.5 | > 100 | > 100 | > 100 | > 100 | > 100 | > 100 | – | > 100 | > 100 | > 100 | > 100 | > 100 | > 100 | – | > 100 | > 100 | > 100 | > 100 |
